Source: PubChem BioAssay (NCI)
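Five concentrations, 48 hours, 96-well plates. GI50 marks 50% less growth. TGI: concentration producing complete growth inhibition.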

Key:
Assay in all cases: NCI tumour cell line growth inhibition, 48 h
[1] = tested on: CAKI-1 renal
[2] = tested on: HCC-2998 colon
[3] = tested on: HL-60(TB) leukemia
[4] = tested on: NCI-H522 lung
[5] = tested on: OVCAR-4 ovarian
[6] = tested on: OVCAR-5 ovarian
[7] = tested on: SK-MEL-28 melanoma
[8] = tested on: SN12C renal
[9] = tested on: U251 CNS
[10] = tested on: K-562 leukemia

Structure (SMILES)	TGI [1]	TGI [2]	TGI [3]	TGI [4]	TGI [5]	TGI [6]	TGI [7]	TGI [8]	TGI [9]	TGI [10]	GI50 [3]	GI50 [10]	GI50 [4]	GI50 [5]	GI50 [6]	GI50 [7]	GI50 [8]	GI50 [1]	GI50 [2]	GI50 [9]
COc1cc(O)c(C(=O)/C=C/c2ccccc2)c(OC)c1	18.2 µM	14.1 µM	5.17 µM	12.1 µM	26.8 µM	> 100 µM	13.1 µM	11.6 µM	21.3 µM											
COc1ccc(-c2oc3cc(O)c(OC)c(O)c3c(=O)c2OC2OC(CO)C(O)C(O)C2O)cc1 (stereo not drawn)		> 100 µM	> 100 µM		> 100 µM		> 100 µM	> 100 µM	> 100 µM	> 100 µM										
Cn1ncc2cc3c(Nc4ccc(Cl)cc4)cccc3nc21	61.3 µM	54.5 µM	43.4 µM		40 µM		35.8 µM	70.8 µM		> 100 µM										
CC(=O)O[C@H]1C(=O)[C@@]2(C)C([C@H](OC(=O)c3ccccc3)[C@]3(O)C[C@H](OC(=O)[C@H](O)[C@H](NC(=O)c4ccccc4)c4ccc(Cl)cc4)C(C)=C1C3(C)C)C1(OC(C)=O)CO[C@@H]1C[C@@H]2O (stereo partly drawn)	23.9 µM	0.0105 µM		0.00369 µM	22.1 µM	0.0407 µM				10.9 µM										
O=C(O)CN(c1ccc(Cl)cc1)S(=O)(=O)c1ccccc1	> 100 µM		> 100 µM	> 100 µM	> 100 µM	> 100 µM	> 100 µM	> 100 µM	> 100 µM	> 100 µM										
Cc1cc(C)nc(NS(=O)(=O)c2ccc(Nc3c4ccccc4nc4c(C(=O)Nc5ccc(S(N)(=O)=O)cc5)cccc34)cc2)n1	> 100 µM			> 100 µM	> 100 µM	> 100 µM	> 100 µM	> 100 µM	> 100 µM	> 100 µM										
Cc1ccc(-c2c(C#N)c(N)nc(N3CCOCC3)c2C#N)o1			> 100 µM	> 100 µM	> 100 µM	> 100 µM	> 100 µM	> 100 µM		> 100 µM	46.3 µM	73.8 µM	36.4 µM	55.5 µM	27.4 µM	71.3 µM	41.6 µM			
COc1cccc(NC(=O)c2sc3nc4c(cc3c2N)CCCC4)c1	66.3 µM	> 100 µM	0.765 µM	> 100 µM	39.9 µM	> 100 µM	> 100 µM	> 100 µM	19.2 µM		0.228 µM		0.806 µM	0.998 µM	3.31 µM	0.905 µM	3.98 µM	0.503 µM	1.6 µM	0.607 µM
NC(N)=NS(=O)(=O)c1ccc(NC(=O)c2cccc3c(Nc4ccc(S(=O)(=O)N=C(N)N)cc4)c4ccc(Cl)cc4nc23)cc1	> 100 µM	> 100 µM		> 100 µM	> 100 µM	> 100 µM	> 100 µM	> 100 µM	> 100 µM	> 100 µM										
COc1c(OC(C)=O)ccc(/C=C2\N=C(C)OC2=O)c1[N+](=O)[O-]	> 100 µM	> 100 µM	> 100 µM	> 100 µM	> 100 µM	> 100 µM		> 100 µM	> 100 µM	> 100 µM										
ClC(=Nc1cccc2ccccc12)N(c1ccccc1)c1ccccc1	> 100 µM	54.8 µM		> 100 µM	> 100 µM	> 100 µM	> 100 µM	> 100 µM	> 100 µM	> 100 µM										
Nc1ccn(C=C=CCO)c(=O)n1	> 1000 µM	> 1000 µM	435 µM	> 1000 µM	> 1000 µM	> 1000 µM		> 1000 µM	> 1000 µM	> 1000 µM		> 1000 µM	> 1000 µM	> 1000 µM	> 1000 µM		> 1000 µM	> 1000 µM	> 1000 µM	> 1000 µM
COc1ccc(/C(=C/c2cc(OC)c(OC)c(OC)c2)[N+](=O)[O-])cc1		3.28 µM	5.59 µM	3.62 µM	3.29 µM	4.09 µM	3.9 µM	3.24 µM	3.05 µM	> 100 µM	1.61 µM	1.71 µM	1.95 µM	1.63 µM	2.01 µM	1.88 µM	1.6 µM		1.81 µM	1.58 µM
CC(=O)Oc1c(C)n(CCCl)ccc1=O	> 100 µM		> 100 µM	> 100 µM	> 100 µM	> 100 µM	> 100 µM	> 100 µM	> 100 µM	> 100 µM										
CCCCOC(=O)C(=O)C(CC(C(=O)Cc1ccccc1)c1ccccc1)C(=O)C=C(C)C (stereo not drawn)	> 100 µM	> 100 µM	> 100 µM	> 100 µM	> 100 µM	> 100 µM	> 100 µM	> 100 µM	> 100 µM											
COc1cc(C(=O)O)c([N+](=O)[O-])c(OC)c1OC	> 100 µM	> 100 µM		> 100 µM	> 100 µM	> 100 µM	> 100 µM	> 100 µM	> 100 µM											
CC(=O)c1ccc(Nc2cc(-n3ccnc3)nc3ccccc23)cc1	7.57 µM	> 100 µM		> 100 µM	> 100 µM	> 100 µM	> 100 µM	> 100 µM	> 100 µM	81.5 µM		11.4 µM	87.9 µM	> 100 µM	> 100 µM	29.8 µM	45.8 µM	1.71 µM	> 100 µM	32.6 µM
O=[N+]([O-])c1ccc(N/N=C\c2cc(Cl)ccc2O)nc1	1.07 µM		8.02 µM		13.7 µM	> 100 µM	> 100 µM	> 100 µM	12.1 µM	> 100 µM	0.65 µM	2.09 µM		1.72 µM	8.88 µM	3.65 µM	2.99 µM	0.278 µM		0.51 µM
NC(N)=NC(CC(=O)O)c1ccccc1 (stereo not drawn)	> 100 µM			> 100 µM	> 100 µM	> 100 µM	> 100 µM	> 100 µM	> 100 µM	> 100 µM										
